Where two headings read alike, the source gives them in different places. Numbered stars: 1 amine (or outer) side, 2 acyl side, 3 side chain; on linkers, the order of the positions; unused ones are H or OH. Square brackets hold non-standard residues; d marks the D form. Peptide text beside a SMILES is read from it. X1 = N=C(N)NCCC[C@H](N[*:1])C(=O)c1nc2ccc(C(=O)[*:2])cc2s1
Assays:
[1] = system: VSV-SARS-CoV-2
[2] = system: VSV-SARS-CoV-2; experiment: microbe, parasite or virus in culture; conditions: Vesicular stomatitis virus, Calu-3, in Homo sapiens, read-out: VSV SARS CoV-2 Cell Entry EC50 (nM)

Row | SMILES | EC50 ([1]; VSV-) [nM] | EC50 [2] [nM] | EC50 ([1]; read-out: VSV SARS CoV-2 Cell Entry EC50) [nM]
1 | CC(=O)N[C@H]1CC(=O)NCCCC[C@@H](C(=O)N[C@@H](CCCNC(=N)N)C(=O)c2nc3ccccc3s2)NC(=O)[C@H](CC(C)C)NC1=O [VD2173, Ac-Cyclo(DLK)—R-ketobenzothiazole] | 197 | – | –
2 | CC(=O)N[C@@H](CCCCN)C(=O)N[C@@H](CCC(N)=O)C(=O)N[C@@H](CC(C)C)C(=O)N[C@@H](CCCNC(=N)N)C(=O)c1nc2ccccc2s1 [ZFH7006, N-[(S)-3-methyl-1-[N-(S)-1-[(1,3-benzothiazol-2-yl)carbonyl]-4-guanidinobutylcarbamoyl]butyl](S)-2-[(S)-1-acetylamino-5-aminopentylcarbonyl-amino]glutaramide] | – | 572 | 652
3 | N=C(N)NCCC[C@H](NC(=O)[C@H](Cc1ccccc1)NC(=O)[C@H](N)Cc1c[nH]c2ccccc12)C(=O)c1nc2ccc(C(=O)O)cc2s1 [PK-1-45A1, 2-[(S)-2-[(S)-2-[(R)-2-amino-3-(3-indolyl)propionylamino]-3-phenylpropionylamino]-5-guanidinovaleryl]-1,3-benzothiazole-6-carboxylic acid] | – | 105 | –
4 | CC(=O)N[C@@H](Cc1c[nH]c2ccccc12)C(=O)N[C@@H](CC(C)C)C(=O)N[C@@H](CCCNC(=N)N)C(=O)c1nc2ccc(C(=O)O)cc2s1 [PK-1-105, 2-[(S)-2-[(S)-2-[(S)-2-acetylamino-3-(3-indolyl)propionylamino]-4-methylvalerylamino]-5-guanidinovaleryl]-1,3-benzothiazole-6-carboxylic acid] | – | 721 | –
5 | CC(=O)N1CCC[C@H]1C(=O)N[C@@H](CCC(N)=O)C(=O)N[C@@H](Cc1ccccc1)C(=O)N[C@@H](CCCNC(=N)N)C(=O)c1nc2ccccc2s1 [MM3123, N-[(S)-1-[N-(S)-1-[(1,3-benzothiazol-2-yl)carbonyl]-4-guanidinobutylcarbamoyl]-2-phenylethyl](S)-2-[(S)-1-acetyl-2-pyrrolidinylcarbonylamino] glutaramide] | – | 0.86 | –
6 | CCC(C)[C@H](NC(C)=O)C(=O)N[C@@H](CO)C(=O)N[C@@H](Cc1ccccc1)C(=O)N[C@@H](CCCNC(=N)N)C(=O)c1nc2ccccc2s1 (stereo partly drawn) [MM4009-2, N-[(S)-2-hydroxy-1-[N-(S)-1-[N-(S)-1-[(1,3-benzothiazol-2-yl)carbonyl]-4-guanidinobutylcarbamoyl]-2-phenylethylcarbamoyl]ethyl] (2S)-2-acetylamino-3-methylvaleramide] | – | 40.3 | –
7 | CC(=O)N[C@@H](CC(C)C)C(=O)N[C@@H](CCC(N)=O)C(=O)N[C@@H](Cc1ccccc1)C(=O)N[C@@H](CCCNC(=N)N)C(=O)c1nc2ccccc2s1 [MM3131, N-[(S)-1-[N-(S)-1-[(1,3-benzothiazol-2-yl)carbonyl]-4-guanidinobutylcarbamoyl]-2-phenylethyl](S)-2-[(S)-2-acetylamino-4-methylvalerylamino]glutaramide] | – | 10.7 | –
8 | CC(=O)N[C@@H](CO)C(=O)N[C@@H](CCCCN)C(=O)N[C@@H](CC(C)C)C(=O)N[C@@H](CCCNC(=N)N)C(=O)c1nc2ccc(C(=O)N[C@H](C(N)=O)C(C)C)cc2s1 [ZFH7116, N-[(S)-1-carbamoyl-2-methylpropyl]-2-[(S)-2-[(S)-2-[(S)-1-[(S)-2-acetylamino-3-hydroxypropionylamino]-5-aminopentylcarbonyl-amino]-4-methylvalerylamino]-5-guanidinovaleryl]-1,3-benzothiazole-6-carboxamide] (Ac-SKL[X1]V-NH2) | – | 489 | –
9 | CCC(C)[C@H](NC(C)=O)C(=O)N[C@H](Cc1cc2ccccc2[nH]1)C(=O)N[C@@H](Cc1ccccc1)C(=O)N[C@@H](CCCNC(=N)N)C(=O)c1nc2ccccc2s1 (stereo partly drawn) [MM4038, N-[(R)-2-(2-indolyl)-1-[N-(S)-1-[N-(S)-1-[(1,3-benzothiazol-2-yl)carbonyl]-4-guanidinobutylcarbamoyl]-2-phenylethylcarbamoy1]ethyl](2S)-2-acetylamino-3-methylvaleramide] | – | 226 | –
10 | CC(=O)N[C@@H](Cc1c[nH]c2ccccc12)C(=O)N[C@@H](Cc1ccccc1)C(=O)N[C@@H](CCCNC(=N)N)C(=O)c1nc2ccccc2s1 [PK-1-102A1, N-[(S)-1-[(1,3-benzothiazol-2-yl)carbonyl]-4-guanidinobutyl](S)-2-[(S)-2-acetylamino-3-(3-indolyl)propionylamino]-3-phenylpropionamide] | – | 1380 | –
11 | CC(=O)N[C@H](Cc1c[nH]c2ccccc12)C(=O)N[C@@H](Cc1ccccc1)C(=O)N[C@@H](CCCNC(=N)N)C(=O)c1nc2ccccc2s1 [PK-1-89A1, N-[(S)-1-[(1,3-benzothiazol-2-yl)carbonyl]-4-guanidinobutyl](S)-2-[(R)-2-acetylamino-3-(3-indolyl)propionylamino]-3-phenylpropionamide] | – | 140 | –
12 | CC(=O)N[C@@H](CC(C)C)C(=O)N[C@@H](CC(C)C)C(=O)N[C@@H](CCCNC(=N)N)C(=O)c1nccs1 [ZFH6201-1, N-[(S)-4-guanidino-1-[(1,3-thiazol-2-yl)carbonyl]butyl](S)-2-[(S)-2-acetylamino-4-methylvalerylamino]-4-methylvaleramide] | – | 1840 | –
